Patent US9873883B2, “Glyphosate resistant plants and associated methods” (Dow AgroSciences LLC, priority 2012, dated 2018)
Several values for one entry are separate records, joined by “and”; a condition that tells them apart may be missing. Identical values can stand only once.

Tests used:
[1] = system: bacterial EPSP synthase DGT-12 (GENBANK ZP_01622155.1) variant DGT-12 v6 (G→A at residue 111), SEQ ID NO:7; assay: In vitro kinetic assay (inorganic phosphate production, malachite green); assay type: biochemical
Excerpt: (§1) The novel DGT-14, DGT-12, DGT-18, DGT-29 and DGT-30 enzymes were obtained and the glycine to alanine mutation was introduced into the EPSP synthase enzymes at a location analogous to the G96A location described for the E. coli version of the EPSP synthase enzyme. The DGT-14 protein sequence was modified by introducing an alanine to replace the endogenous glycine of GENBANK ACC NO: ZP_01452683 at amino acid residue 101, thereby resulting in SEQ ID NO:1. The DGT-12 protein sequence was modified by introducing an alanine to replace the endogenous glycine of GENBANK ACC NO: ZP_01622155.1 at amino acid residue 111, thereby resulting in SEQ ID NO:7. The DGT-18 protein sequence was modified by introducing an alanine to replace the endogenous glycine of GENBANK ACC NO: NP_928909.1 at amino acid residue 96, thereby resulting in SEQ ID NO:9. The DGT-29 protein sequence was modified by introducing an alanine to replace the endogenous glycine of GENBANK ACC NO: YP_322772.1 at amino acid residue 96, thereby resulting in SEQ ID NO:11. The DGT-30 protein sequence was modified by introducing an alanine to replace the endogenous glycine of GENBANK ACC NO: ZP_02156189.1 at amino acid residue 96, thereby resulting in SEQ ID NO:13.
(§2) The synthesized genes were cloned into the pET28 expression vector.
Recombinant DGT proteins were overexpressed in Rosetta2™ (DE3) cells (Novagen, Madison, Wis.) from the constructs described above. A single colony was used to inoculate 50 mL starter cultures of LB containing chloramphenicol (25 μg/mL) and kanamycin (50 μg/mL) which were cultivated overnight at 37° C. The overnight cultures were used to inoculate 1 L of LB containing chloramphenicol (25 μg/mL) and kanamycin (50 μg/mL). The cultures were grown at 37° C. to an O.D.600=0.6 then placed in an ice water bath for 10 minutes. Expression of the target proteins was achieved by addition of IPTG to a final concentration of 500 μM. Induction was allowed to proceed overnight at 20° C. followed by harvesting via centrifugation at 8,000 rpm for 20 minutes. […]

[2] = system: dgt-14 soybean plants; assay: Glyphosate tolerance of dgt-14 soybean; assay type: in vivo, Glycine max; settings: sprayed
Description: Terminal leaflets of selected plantlets are treated topically (leaf paint technique) with a herbicide to screen for putative transformants. The screened plantlets are transferred to the greenhouse, allowed to acclimate and then leaf-painted with a herbicide to reconfirm tolerance. These putative transformed T0 plants are sampled and molecular analyses is used to confirm the presence of the selectable marker and the dgt-14 transgene. Several events are identified as containing the transgenes. These T0 plants are advanced for further analysis and allowed to self fertilize in the greenhouse to give rise to T1 seed. Soybean plants containing the dgt-14 transgene are obtained. The dgt-14 soybean plants are sprayed with varying concentrations of glyphosate and shown to provide tolerance to glyphosate at concentrations up to 3360 g ae/ha.

[3] = system: dgt-14 rice plants; assay: Glyphosate tolerance of dgt-14 rice; assay type: in vivo, Oryza sativa; settings: sprayed
Excerpt: Putatively transgenic rice plantlets at the 3-5 leaf stage are sprayed with a solution of glyphosate. Once sprayed, plantlets are allowed to dry for one hour before being moved out of the fume hood. Rating for sensitivity or resistance to glyphosate is completed from 10-14 days after treatment (DAT). Glyphosate resistant rice plantlets which contain a fully integrated copy of the dgt-14 plant are identified. Rice plants containing the dgt-14 transgene are obtained. The dgt-14 rice plants are sprayed with varying concentrations of glyphosate and shown to provide tolerance to glyphosate at concentrations up to 3360 g ae/ha.

[4] = system: Arabidopsis transformed with TraP5 v1::dgt-14 (pDAB102787); assay: Postemergence glyphosate tolerance, visual injury; assay type: in vivo, Arabidopsis thaliana; settings: 2 weeks after application
[5] = molecular target: Mariprofundus ferrooxydans EPSP synthase DGT-14 variant DGT-14 v6 (G101A), SEQ ID NO:1 (Mariprofundus ferrooxydans, UniProt Q0EYT4, G101A); assay: In vitro kinetic assay (inorganic phosphate production, malachite green); assay type: biochemical; settings: IC50 (glyphosate), values greater than 50 are estimates
[6] = molecular target: bacterial EPSP synthase DGT-18 (GENBANK NP_928909.1) variant DGT-18 v6 (G→A at residue 96), SEQ ID NO:9 (Photorhabdus laumondii, UniProt Q7N6D5, G96A); assay: as above; settings: IC50 (glyphosate)
Excerpt: as §1, §2
(§3) Recombinant DGT proteins were overexpressed in Rosetta2™ (DE3) cells (Novagen, Madison, Wis.) from the constructs described above. A single colony was used to inoculate 50 mL starter cultures of LB containing chloramphenicol (25 μg/mL) and kanamycin (50 μg/mL) which were cultivated overnight at 37° C. The overnight cultures were used to inoculate 1 L of LB containing chloramphenicol (25 μg/mL) and kanamycin (50 μg/mL). The cultures were grown at 37° C. to an O.D.600=0.6 then placed in an ice water bath for 10 minutes. Expression of the target proteins was achieved by addition of IPTG to a final concentration of 500 μM. Induction was allowed to proceed overnight at 20° C. followed by harvesting via centrifugation at 8,000 rpm for 20 minutes. The cell pellets were stored at −80° C. until required for purification. All purification steps were carried out at 4° C.

[7] = molecular target: bacterial EPSP synthase DGT-30 (GENBANK ZP_02156189.1) variant DGT-30 v6 (G→A at residue 96), SEQ ID NO:13 (Shewanella benthica, UniProt A9CYU9, G96A); assay: as above; settings: IC50 (glyphosate)
Excerpt: as §1, §2, §3

[8] = molecular target: bacterial EPSP synthase DGT-29 (GENBANK YP_322772.1) variant DGT-29 v6 (G→A at residue 96), SEQ ID NO:11 (Trichormus variabilis, UniProt Q3MAV9, G96A); assay: as above; settings: IC50 (glyphosate), values greater than 50 are estimates
Excerpt: as §1, §2, §3

[9] = system: Arabidopsis transformed with TraP12 v2::dgt-14 (pDAB105528); assay: Postemergence glyphosate tolerance, visual injury; assay type: in vivo, Arabidopsis thaliana; settings: 2 weeks after application

C=C(OP(=O)(O)O)C(=O)O [PEP, phosphoenolpyruvate]
kcat/Km ([1]; PEP, pH 7.5, 1 mM S3P): 700 M⁻¹ s⁻¹
Km ([1]; read-out: Km for PEP, pH 7.5, 1 mM S3P): 128 µM

O=C(O)CNCP(=O)(O)O [glyphosate, N-(phosphonomethyl)glycine]
tolerance to glyphosate at concentrations up to [2]: up to 3360 g ae/ha
tolerance to glyphosate at concentrations up to [3]: up to 3360 g ae/ha
Visual % injury (Ave) ([4]; T2, 840 g ae/ha): 90.0%
Visual % injury (Ave) ([4]; T3, 840 g ae/ha): 86.3%
IC50 ([5]; at 60 μM PEP): > 80 mM
IC50 ([5]; at 1 mM PEP): > 80 mM
IC50 ([1]; at 1 mM PEP, read-out: IC50 (glyphosate)): 4 mM
IC50 ([6]; at 60 μM PEP): 9.24 mM
IC50 ([6]; at 1 mM PEP): 33.2 mM
IC50 ([7]; at 60 μM PEP): 7.86 mM
IC50 ([7]; at 1 mM PEP): 15.6 mM and 15.5 mM
IC50 ([8]; *determined at 100 μM PEP): > 80 mM
IC50 ([8]; at 1 mM PEP): > 80 mM
Visual % injury (Ave) ([9]; T2, 840 g ae/ha): 2.5%
Visual % injury (Ave) ([9]; T3, 840 g ae/ha): 0.0%
